Test results taken from patent US6903116B2, “Methods of treating cancer using a heat shock factor activity inhibitor” (Kaneka Corp., priority 1997, dated 2005).

How the values were obtained:
[1] = system: HSP70 (inducible type) mRNA; assay: Transcription suppression of HSP70 (inducible type) mRNA by Northern hybridization; type: cell-based; details: COLO320DM cells, heat shock 42° C. 90 min; for Transcription Amount of HSP70 (induced type): 100 μM, DMSO = 1.0
Method: COLO320DM cells (ATCC CCL-220) were pre-treated with Compounds 101, 102 and 103 in a CO2 incubator at 37° C. for 60 min using 10% FCS, DMEM medium (Gibco BRL), after which the cell was subjected to a heat shock of 42° C. for 90 min. Immediately thereafter, the treated cells were collected, and total RNA was extracted from the cells by using the acid guanidine thiocyanate phenol chloroform (AGPC) method. The total RNA was electrophoresed, transferred to a nylon filter, and the amounts of HSP mRNA were compared among experimental groups by using the Northern hybridization method. cDNA of HSP70 (inducible type) labeled with [α-^32P] dCTP was used as a probe, and cDNA of β-actin was used as an internal control. […] Table 2 provides comparison in the amount of transcription of HSP70 (inducible type) among cells which were subjected to a heat shock after treatment with the respective compounds, with the amount of induced transcription in a cell treated with the control solvent DMSO being 1.0.

SV40 early promoter = assay: Reporter protein expression suppression, stable transformant B (SV40 early promoter β-galactosidase); type: cell-based, Chinese hamster; details: heat shock 42° C. 90 min, relative to DMSO
HSP100 = assay: HSP expression induction suppression by 2-dimensional electrophoresis, HSP100; type: cell-based; set-up: key: ↑↑↑: Not Suppressed (Strongly Induced); ↓: Slightly Suppressed; ↓↓: Suppressed; ↓↓↓: Strongly Suppressed; details: 100 μM; COLO320DM cells; compared with DMSO control
Method: (§1) COLO320DM cells were pre-treated with Compounds 101, 102 and 103 at 37° C. for 60 min, followed by application of a heat shock at 42° C. for 90 min, and recovery at 37° C. for 2 hours. Then, the media were replaced with methionine-free media, and the cells were treated at 37° C. for 1 hour with ^35S-methionine to label newly synthesized proteins.
(§2) The cell lysate was obtained, subjected to an isoelectric focusing as the first dimension and then to an expansion by SDS-PAGE as the second dimension. Then, the gel was subjected to fluorography so as to compare between the amounts of HSP synthesized with and without heat induction. Comparison between the amounts of β-actin synthesized as an internal control with and without heat induction confirmed that the other proteins were normally synthesized.

[2] = Antidepressant effect in forced swimming test; type: in vivo; details: 100 mg/kg orally once, Wistar male rat; for No-Movement Period: 5-minute test; for Suppression Rate (%): versus physiological saline
Method: The experiment was conducted as a partial modification of the Porsolt, R. D. et al. method (Eur. J. Pharm., 47: 379, 1978). In particular, a Wistar male rat (5 weeks of age, weight: 130-150 g) was dropped into water (temperature: 25° C.) about 15 cm deep in a glass cylinder having an inner diameter of 18 cm and a height of 40 cm. The rat was taken out after 15 min, dried and put back into a home cage. […] One hundred mg/kg of each test compound, suspended in a physiological saline, was orally administered once before the 5-minute test so as to examine the antidepression effect. One hundred mg/kg of imipramine, a known antidepressant, as a control drug and 5 ml/kg of a physiological saline as a control were similarly orally administered. A shortened no-movement period was calculated as a suppression rate according to the following formula: Suppression Rate (%)=(E−F)/E×100 • E: No-Movement Period with Physiological Saline • F: No-Movement Period with Test Compound

HSP40 = assay: HSP expression induction suppression by 2-dimensional electrophoresis, HSP40; type: cell-based; set-up: key: ↑↑↑: Not Suppressed (Strongly Induced); ↓: Slightly Suppressed; ↓↓: Suppressed; ↓↓↓: Strongly Suppressed; details: 100 μM; COLO320DM cells; compared with DMSO control
Method: as §1, §2

β-actin = assay: 2-dimensional electrophoresis, β-actin internal control; type: cell-based; details: 100 μM; COLO320DM cells
Method: as §1, §2

HSP47 = assay: HSP expression induction suppression by 2-dimensional electrophoresis, HSP47; type: cell-based; set-up: key: ↑↑↑: Not Suppressed (Strongly Induced); ↓: Slightly Suppressed; ↓↓: Suppressed; ↓↓↓: Strongly Suppressed; details: 100 μM; COLO320DM cells; compared with DMSO control
Method: as §1, §2

[3] = system: promoter region including the HSE sequence for HSP47; assay: Reporter protein expression suppression, stable transformant A (HSE/HSP47 promoter β-galactosidase); type: cell-based, Chinese hamster; details: heat shock 42° C. 90 min, relative to DMSO
Description: A plasmid was produced in which a β-galactosidase gene was located downstream of a promoter region including the HSE sequence for HSP47. […] Chinese hamster ovary (CHO) cells were transfected with the plasmid to obtain stable transformant […]. These stable transformants were pre-treated with Compounds 101, 102 and 103 above and Compound C (1-acetyl-3-benzo-(1,3)dioxole-5-ylmethylene-pyrrolidin-2-one; this compound is represented by general formula (I) of the present invention wherein X is —CH2— and R^1 is acetyl) in a CO2 incubator at 37° C. for 60 min. Then, the transformants were subjected to a heat shock of 42° C. for 90 min, recovered at 37° C. for 2 hours, and incubated at a room temperature for 30 min with 4-methylumbelliferyl-β-D-galactoside as a substrate for the activity of β-galactosidase expressed in the cell. Then, the fluorescence was measured (excitation at 365 nm, emission at 450 nm). The amount of β-galactosidase expressed after a treatment with test compounds or the known HSF and HSP inhibitor quercetin as a control agent was divided by the amount of β-galactosidase expressed after a treatment with dimethylsulfoxide (DMSO) as a solvent control, thereby calculating the expression rate (%) as shown in Table 1.

HSP70 = assay: HSP expression induction suppression by 2-dimensional electrophoresis, HSP70; type: cell-based; set-up: key: ↑↑↑: Not Suppressed (Strongly Induced); ↓: Slightly Suppressed; ↓↓: Suppressed; ↓↓↓: Strongly Suppressed; details: 100 μM; COLO320DM cells; compared with DMSO control
Method: as §1, §2

COLO320DM cells = assay: Cell heat resistance suppression, colony formation assay; type: cell-based; details: 100 μM; pre-heating 42° C. 90 min, then 45° C. 60 min; all colonies counted
Method: COLO320DM cells were pre-treated with the above-described compounds at 37° C. for 60 min, followed by pre-heating by application of a heat shock of 42° C. for 90 min. The cells were further treated at 37° C. for 60 min. Then, the media were replaced respectively with compound-free media, and the cells were further incubated at 37° C. for 60 min. Thereafter, the cells were treated at 45° C. for 60 min, and cultured for about 10 days followed by measurement of the number of surviving cells as the number of colonies using a colony formation assay. […] The number of colonies formed without the treatment at 45° C. was substantially the same among all of the drugs.
The compounds of the present invention clearly confirmed to have the inhibitory effect on the acquisition of cell heat resistance, which is greater than that obtained with the known inhibitor quercetin. The surviving fraction was calculated according to the following formula: Surviving Fraction (%)=A/B×100 • A: Cell Survival Fraction With Treatment at 45° C. for 60 min • B: Cell Survival Fraction Without Treatment at 45° C. Cell Survival Fraction=C/D • C: Number of Surviving Cells • D: Number of Cells Seeded

HSP90 = assay: HSP expression induction suppression by 2-dimensional electrophoresis, HSP90; type: cell-based; set-up: key: ↑↑↑: Not Suppressed (Strongly Induced); ↓: Slightly Suppressed; ↓↓: Suppressed; ↓↓↓: Strongly Suppressed; details: 100 μM; COLO320DM cells; compared with DMSO control
Method: as §1, §2

[4] = system: murine carcinoma cell (SCC VII); assay: Inhibitory effect on cancer heat resistance acquisition, tumor growth delay assay; type: in vivo, C3H/He mice
Method: A murine carcinoma cell (SCC VII) was implanted in the right leg of C3H/He mice (male, about 10 mice for each group), and the experiment was started when the tumor became about 1 cm in diameter. The tumor was heated by soaking the tumor site of each mouse under general anaesthesia into a constant temperature bath at 44° C. The inhibitory effect on the heat resistance acquisition by cancer cell was examined by a growth delay assay on the tumor. Two hundred mg/kg of each test compound, suspended in an olive oil, was intraperitoneally administered once 6 hours before the first heating. The first heating was performed for 10 minutes (H1), and the second heating was performed for 30 minutes (H2), with a recovery period of 8 hours at room temperature between the first heating and the second heating.

| Structure (SMILES) | Transcription Amount of HSP70 (induced type) [1] | Suppression of mRNA transcription of HSP70 (in words) [1] | Expression Rate (%) Transformant B (SV40 early promoter; 5 μM) [%] | Expression Rate (%) Transformant B (SV40 early promoter; 50 μM) [%] | Expression Rate (%) Transformant B (SV40 early promoter; 100 μM) [%] | HSP Induction by Heat Shock Treatment, HSP100 (HSP100) | No-Movement Period [2] [s] | Suppression Rate (%) [2] [%] | HSP Induction by Heat Shock Treatment, HPS40 (HSP40) | β-actin synthesis by Heat Shock Treatment (internal control) (β-actin) | HSP Induction by Heat Shock Treatment, HSP47 (HSP47) | Expression Rate (%) Transformant A ([3]; 5 μM) [%] | Expression Rate (%) Transformant A ([3]; 50 μM) [%] | Expression Rate (%) Transformant A ([3]; 100 μM) [%] | HSP Induction by Heat Shock Treatment, HSP70 (HSP70) | Surviving Fraction (%) (COLO320DM cells) | HSP Induction by Heat Shock Treatment, HSP90 (HSP90) | Mean days before tumor tripled ([4]; 200 mg/kg i.p. 6 hours before first heating, 44° C. 10 min (H1), 8 hr, 30 min (H2)) [days] | Mean days before tumor tripled ([4]; 200 mg/kg i.p., 44° C., 30 min heating) [days] | Mean days before tumor tripled ([4]; 200 mg/kg intraperitoneally once, no heating) [days] |
| --- | --- | --- | --- | --- | --- | --- | --- | --- | --- | --- | --- | --- | --- | --- | --- | --- | --- | --- | --- | --- |
| O=C1NCCC/C1=C\c1ccc2c(c1)OCO2 [Compound 103] | 0.1 | specifically and significantly suppressed | 93 | 62 | 46 | ↓↓↓ | 90 | 56 | ↓↓↓ | no change | ↓↓↓ | 47 | 10 | 2 | ↓↓↓ | <1 | ↓↓↓ |  |  |  |
| CC(=O)N1CCC(=Cc2ccc3c(c2)OCO3)C1=O [Compound C, 1-acetyl-3-benzo-(1,3)dioxole-5-ylmethylene-pyrrolidin-2-one] |  |  | 91 | 88 |  |  |  |  |  |  |  | 40 | 11 |  |  |  |  |  |  |  |
| O=CN1CC/C(=C\c2ccc3c(c2)OCO3)C1=O [Compound 102] | 0.04 | specifically and significantly suppressed | 88 | 75 | 69 | ↓↓↓ |  |  | ↓↓↓ | no change | ↓↓↓ | 57 | 3 | 0 | ↓↓↓ | <1 | ↓↓↓ | 12.6 | 13.3 | 8.4 |
| O=C1NCC/C1=C\c1ccc2c(c1)OCO2 [Compound 101] | 0.03 | specifically and significantly suppressed | 90 | 61 |  | ↓↓↓ | 145 | 29 | ↓↓↓ | no change | ↓↓↓ | 46 | 1 |  | ↓↓↓ | <1 | ↓↓↓ |  |  |  |
| CN(C)CCCN1c2ccccc2CCc2ccccc21 [Imipramine, imipramine, reference compound] |  |  |  |  |  |  | 180 | 12 |  |  |  |  |  |  |  |  |  |  |  |  |
| O=c1c(O)c(-c2ccc(O)c(O)c2)oc2cc(O)cc(O)c12 [Quercetin, quercetin, reference compound] | 0.4 |  | 96 | 82 | 58 | ↓ |  |  | ↓↓ | no change | ↓↓ | 99 | 25 | 6 | ↓ | 6 | ↓ |  |  |  |
